Patent publication US20120004228A1, “Bis Aromatic Compounds for Use as LTC4 Synthase Inhibitors” (BIOLIPOX AB, priority 2009, published 2012)

These compounds were tested against T1, Recombinant human LTC4 synthase (Homo sapiens, UniProt Q16873) (assay: In vitro LTC4 synthase assay (LTA4 to LTC4, HTRF detection)).
T1 construct: made in house; host or cells: Pichia pastoris ('Piccia pastoralis' [sic])
T1 sequence (Q16873 1-150): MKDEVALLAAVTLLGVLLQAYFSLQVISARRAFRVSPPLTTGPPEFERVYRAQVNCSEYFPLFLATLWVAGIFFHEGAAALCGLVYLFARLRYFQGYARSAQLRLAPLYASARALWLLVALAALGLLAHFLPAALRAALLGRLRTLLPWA
Type: biochemical
With `CN(c1ccc(Cl)cc1)c1ccc(C(=O)c2cc(NC(=O)c3ccc(Cl)cc3Cl)cc(C(=O)O)c2)cc1` [Example 1:1, 3-{4-[(4-Chlorophenyl)(methyl)amino]benzoyl}-5-(2,4-dichlorobenzamido)benzoic acid] the inhibition at 1 µM was 95%.

Target: T1, Recombinant human LTC4 synthase
Assay: as above
Type: biochemical
Remark: another data set of the same source
Compound `CN(c1ccc(Cl)cc1)c1ccc(C(=O)c2cc(NC(=O)c3ccc(Cl)cc3Cl)cc(C(=O)O)c2)cc1` [Example 1:1, 3-{4-[(4-Chlorophenyl)(methyl)amino]benzoyl}-5-(2,4-dichlorobenzamido)benzoic acid] has an IC50 of 166 nM.
In the case of `CN(c1ccc(Cl)cc1)c1ccc(C(=O)c2cc(Nc3ccc(Cl)cc3)cc(C(=O)O)c2)cc1` [Example 10:2, 3-{4-[(4-Chlorophenyl)(methyl)amino]benzoyl}-5-(4-chlorophenylamino)-benzoic acid], the IC50 is reported as 64 nM.
Compound `COc1cccc(Nc2cc(C(=O)O)cc(C(=O)c3ccc(N(C)c4ccc(Cl)cc4)cc3)c2)c1` [Example 10:3, 3-{4-[(4-Chlorophenyl)(methyl)amino]benzoyl}-5-(3-methoxyphenylamino)-benzoic acid] has an IC50 of 273 nM.
Work on `CN(c1ccc(Cl)cc1)c1ccc(C(=O)c2cc(C(=O)O)cc(N(C)c3ccccc3)c2)cc1` [Example 10:23, 5-{4-[(4-Chlorophenyl)(methyl)amino]benzoyl}-3-[methyl(phenyl)amino]benzoic acid] yielded an IC50 of 40 nM.
`CN(c1ccc(Cl)cc1)c1ccc(C(=O)c2cc(C(=O)O)cc(N(C(=O)C3CCC3)c3ccccc3)c2)cc1` [Example 10:31, 3-{4-[(4-Chlorophenyl)(methyl)amino]benzoyl}-5-[(N-phenyl)cyclobutylcarboxamido]benzoic acid] was tested, and the IC50 was 277 nM.
With `CC(C)OCC(O)CN(c1ccccc1)c1cc(C(=O)O)cc(C(=O)c2ccc(N(C)c3ccc(Cl)cc3)cc2)c1` (stereo not shown) [Example 10:38, 3-{4-[(4-Chlorophenyl)(methyl)amino]benzoyl}-5-[(2-hydroxy-3-isopropoxy-propyl)(phenyl)amino]benzoic acid] the IC50 was 183 nM.
With `COc1ccc(COc2cc(C(=O)O)cc(C(=O)c3ccc(N(C)c4ccc(Cl)cc4)cn3)c2)cc1` [Example 11:1, 3-{5-[(4-Chlorophenyl)(methyl)aminol]picolinoyl}-5-(4-methoxybenzyloxy)benzoic acid] the IC50 was 887 nM.
`CN(c1ccc(Cl)cc1)c1ccc(C(=O)c2cc(C(=O)O)cc(-c3cccc(Cl)c3)c2)nc1` [Example 12:1, 3′-Chloro-5-{5-[(4-chlorophenyl)(methyl)amino]picolinoyl}biphenyl-3-carboxylic acid] showed an IC50 of 184 nM.
`CN(c1ccc(Cl)cc1)c1ccc(C(=O)c2cc(Cc3ccccc3)cc(C(=O)O)c2)nc1` [Example 13, 3-Benzyl-5-{5-[(4-chlorophenyl)(methyl)amino]picolinoyl}benzoic acid] showed an IC50 of 298 nM.
With `CN(c1ccc(Cl)cc1)c1ccc(C(=O)c2cc(C(=O)O)cc(C(=O)c3ccccc3)c2)nc1` [Example 14, 3-Benzoyl-5-{5-[(4-chlorophenyl)(methyl)amino]picolinoyl}benzoic acid] the IC50 was 146 nM.
Work on `COc1cccc(C(=O)c2cc(C(=O)O)cc(C(=O)c3ccc(N(C)c4ccc(Cl)cc4)cn3)c2)c1` [Example 15, 3-{5-[(4-Chlorophenyl)(methyl)amino]picolinoyl}-5-(3-methoxybenzoyl)benzoic acid] yielded an IC50 of 173 nM.
With `CN(c1ccc(Cl)cc1)c1ccc(C(=O)c2cc(C(=O)O)cc(-n3ccc4ccccc43)c2)nc1` [Example 16, 3-{5-[(4-Chlorophenyl)(methyl)aminol]picolinoyl}-5-(1-indolyl)benzoic acid] the IC50 was 259 nM.
